Assays:
Format in all cases: in vivo
[1] = system: Cyperus difformis; test: Test Example 3: herbicidal effect by application to foliage (Wagner pot, water depth 0.1-0.5 cm); conditions: Nineteenth Table; application to foliage; application herbicide amount 320 g/ha
Outline: (§1)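 Foliar spray, 14-day-old plants, emulsion diluted to target g/ha; rated 3 wk post-application, 0–5 scale (0 ≤5%, 5 ≥90% herbicidal ratio). Greenhouse 25–30 °C, alluvial soil.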

[2] = system: Echinochloa crus-galli var. crus-galli; test: as above; conditions: Nineteenth Table; application to foliage; application herbicide amount 320 g/ha
Outline: as §1

[3] = system: Leptochloa chinensis; test: as above; conditions: Nineteenth Table; application to foliage; application herbicide amount 320 g/ha
Outline: as §1

[4] = system: directly sowed Oryza sativa; test: Test Example 3: effect on crop by application to foliage (Wagner pot, water depth 0.1-0.5 cm); conditions: Nineteenth Table; application to foliage; application herbicide amount 320 g/ha
Outline: as §1

[5] = system: Abutilon theophrasti; test: Test Example 4: herbicidal effect by application to foliage (diluvial soil, plastic box); conditions: 320 g/ha; for M (Abutilon theophrasti) herbicidal effect grade: foliage application
Outline: (§2)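 Seeds sown in sterilized diluvial soil, covered ~1.5 cm, grown 14 days in greenhouse at 25° C. to 30° C. Emulsion formulation diluted in water to set rate (g/ha) and sprayed onto stems and leaves. Effect scored visually 3 weeks later on 0–5 scale (5 = ≥90% herbicidal ratio, 0 = ≤5%).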

[6] = system: Alopecurus myosuroides; test: as above; conditions: 320 g/ha; for J (Alopecurus myosuroides) herbicidal effect grade: foliage application
Outline: as §2

[7] = system: Amaranthus retroflexus; test: as above; conditions: 320 g/ha; for N (Amaranthus retroflexus) herbicidal effect grade: foliage application
Outline: as §2

[8] = system: Apera spica-venti.; test: as above; conditions: 320 g/ha; for L (Apera spica-venti.) herbicidal effect grade: foliage application
Outline: as §2

[9] = system: Avena fatua; test: as above; conditions: 320 g/ha; for I (Avena fatua) herbicidal effect grade: foliage application
Outline: as §2

[10] = system: Chenopodium album; test: as above; conditions: 320 g/ha; for O (Chenopodium album) herbicidal effect grade: foliage application
Outline: as §2

[11] = system: Digitaria ciliaris; test: as above; conditions: 320 g/ha; for F (Digitaria ciliaris) herbicidal effect grade: foliage application
Outline: as §2

[12] = system: Echinochloa crus-galli var. crus-galli; test: as above; conditions: 320 g/ha; for H (Echinochloa crus-galli var. crus-galli) herbicidal effect grade: foliage application
Outline: as §2

[13] = system: Galium spurium; test: as above; conditions: 320 g/ha; for Q (Galium spurium) herbicidal effect grade: foliage application
Outline: as §2

[14] = system: Lolium multiflorum Lam.; test: as above; conditions: 320 g/ha; for K (Lolium multiflorum Lam.) herbicidal effect grade: foliage application
Outline: as §2

[15] = system: Setaria viridis; test: as above; conditions: 320 g/ha; for G (Setaria viridis) herbicidal effect grade: foliage application
Outline: as §2

[16] = system: Stellaria media; test: as above; conditions: 320 g/ha; for P (Stellaria media) herbicidal effect grade: foliage application
Outline: as §2

## CC(c1nnc2c(C(=O)Nc3nnnn3C)ccc(C(F)(F)F)n12)[S+](C)[O-] (stereo not shown) [2-053]
[1]
  E (herbicidal effect grade): 5 (Herbicidal ratio of 90% or more (almost completely withered))
[2]
  H (herbicidal effect grade): 5 (Herbicidal ratio of 90% or more (almost completely withered))
[3]
  D (herbicidal effect grade): 5 (Herbicidal ratio of 90% or more (almost completely withered))
[4]
  b (effect on crop grade): 5 (Herbicidal ratio of 90% or more (almost completely withered))
[5]
  M (Abutilon theophrasti) herbicidal effect grade: 5 (Herbicidal ratio of 90% or more (almost completely withered))
[6]
  J (Alopecurus myosuroides) herbicidal effect grade: 5 (Herbicidal ratio of 90% or more (almost completely withered))
[7]
  N (Amaranthus retroflexus) herbicidal effect grade: 5 (Herbicidal ratio of 90% or more (almost completely withered))
[8]
  L (Apera spica-venti.) herbicidal effect grade: 5 (Herbicidal ratio of 90% or more (almost completely withered))
[9]
  I (Avena fatua) herbicidal effect grade: 5 (Herbicidal ratio of 90% or more (almost completely withered))
[10]
  O (Chenopodium album) herbicidal effect grade: 5 (Herbicidal ratio of 90% or more (almost completely withered))
[11]
  F (Digitaria ciliaris) herbicidal effect grade: 5 (Herbicidal ratio of 90% or more (almost completely withered))
[12]
  H (Echinochloa crus-galli var. crus-galli) herbicidal effect grade: 5 (Herbicidal ratio of 90% or more (almost completely withered))
[13]
  Q (Galium spurium) herbicidal effect grade: 5 (Herbicidal ratio of 90% or more (almost completely withered))
[14]
  K (Lolium multiflorum Lam.) herbicidal effect grade: 4 (Herbicidal ratio of 70% or more and less than 90%)
[15]
  G (Setaria viridis) herbicidal effect grade: 5 (Herbicidal ratio of 90% or more (almost completely withered))
[16]
  P (Stellaria media) herbicidal effect grade: 5 (Herbicidal ratio of 90% or more (almost completely withered))

## CC(c1nnc2c(C(=O)Nc3nnnn3C)ccc(C(F)(F)F)n12)S(C)(=O)=O (stereo not shown) [2-054]
[1]
  E (herbicidal effect grade): 5 (Herbicidal ratio of 90% or more (almost completely withered))
[2]
  H (herbicidal effect grade): 5 (Herbicidal ratio of 90% or more (almost completely withered))
[3]
  D (herbicidal effect grade): 5 (Herbicidal ratio of 90% or more (almost completely withered))
[4]
  b (effect on crop grade): 5 (Herbicidal ratio of 90% or more (almost completely withered))
[5]
  M (Abutilon theophrasti) herbicidal effect grade: 5 (Herbicidal ratio of 90% or more (almost completely withered))
[6]
  J (Alopecurus myosuroides) herbicidal effect grade: 4 (Herbicidal ratio of 70% or more and less than 90%)
[7]
  N (Amaranthus retroflexus) herbicidal effect grade: 5 (Herbicidal ratio of 90% or more (almost completely withered))
[8]
  L (Apera spica-venti.) herbicidal effect grade: 5 (Herbicidal ratio of 90% or more (almost completely withered))
[9]
  I (Avena fatua) herbicidal effect grade: 5 (Herbicidal ratio of 90% or more (almost completely withered))
[10]
  O (Chenopodium album) herbicidal effect grade: 5 (Herbicidal ratio of 90% or more (almost completely withered))
[11]
  F (Digitaria ciliaris) herbicidal effect grade: 5 (Herbicidal ratio of 90% or more (almost completely withered))
[12]
  H (Echinochloa crus-galli var. crus-galli) herbicidal effect grade: 5 (Herbicidal ratio of 90% or more (almost completely withered))
[13]
  Q (Galium spurium) herbicidal effect grade: 4 (Herbicidal ratio of 70% or more and less than 90%)
[14]
  K (Lolium multiflorum Lam.) herbicidal effect grade: 5 (Herbicidal ratio of 90% or more (almost completely withered))
[15]
  G (Setaria viridis) herbicidal effect grade: 5 (Herbicidal ratio of 90% or more (almost completely withered))
[16]
  P (Stellaria media) herbicidal effect grade: 5 (Herbicidal ratio of 90% or more (almost completely withered))

## Cn1nnnc1NC(=O)c1ccc(C(F)(F)F)n2c(Nc3ccccc3)nnc12 [2-056]
[1]
  E (herbicidal effect grade): 4 (Herbicidal ratio of 70% or more and less than 90%)
[2]
  H (herbicidal effect grade): 4 (Herbicidal ratio of 70% or more and less than 90%)
[3]
  D (herbicidal effect grade): 5 (Herbicidal ratio of 90% or more (almost completely withered))
[4]
  b (effect on crop grade): 4 (Herbicidal ratio of 70% or more and less than 90%)
[5]
  M (Abutilon theophrasti) herbicidal effect grade: 4 (Herbicidal ratio of 70% or more and less than 90%)
[6]
  J (Alopecurus myosuroides) herbicidal effect grade: 1 (Herbicidal ratio of 5% or more and less than 20%)
[7]
  N (Amaranthus retroflexus) herbicidal effect grade: 4 (Herbicidal ratio of 70% or more and less than 90%)
[8]
  L (Apera spica-venti.) herbicidal effect grade: 1 (Herbicidal ratio of 5% or more and less than 20%)
[9]
  I (Avena fatua) herbicidal effect grade: 1 (Herbicidal ratio of 5% or more and less than 20%)
[10]
  O (Chenopodium album) herbicidal effect grade: 5 (Herbicidal ratio of 90% or more (almost completely withered))
[11]
  F (Digitaria ciliaris) herbicidal effect grade: 5 (Herbicidal ratio of 90% or more (almost completely withered))
[12]
  H (Echinochloa crus-galli var. crus-galli) herbicidal effect grade: 4 (Herbicidal ratio of 70% or more and less than 90%)
[13]
  Q (Galium spurium) herbicidal effect grade: 4 (Herbicidal ratio of 70% or more and less than 90%)
[14]
  K (Lolium multiflorum Lam.) herbicidal effect grade: 1 (Herbicidal ratio of 5% or more and less than 20%)
[15]
  G (Setaria viridis) herbicidal effect grade: 3 (Herbicidal ratio of 40% or more and less than 70%)
[16]
  P (Stellaria media) herbicidal effect grade: 5 (Herbicidal ratio of 90% or more (almost completely withered))

## Cn1nnnc1NC(=O)c1ccc(C(F)(F)F)n2c(SCC(F)(F)F)nnc12 [2-087]
[1]
  E (herbicidal effect grade): 5 (Herbicidal ratio of 90% or more (almost completely withered))
[2]
  H (herbicidal effect grade): 5 (Herbicidal ratio of 90% or more (almost completely withered))
[3]
  D (herbicidal effect grade): 5 (Herbicidal ratio of 90% or more (almost completely withered))
[4]
  b (effect on crop grade): 3 (Herbicidal ratio of 40% or more and less than 70%)
[5]; application to foliage
  herbicidal effect, M (Abutilon theophrasti): 5 (Herbicidal ratio of 90% or more (almost completely withered))
[6]; application to foliage
  herbicidal effect, J (Alopecurus myosuroides): 3 (Herbicidal ratio of 40% or more and less than 70%)
[7]; application to foliage
  herbicidal effect, N (Amaranthus retroflexus): 4 (Herbicidal ratio of 70% or more and less than 90%)
[8]; application to foliage
  herbicidal effect, L (Apera spica-venti.): 4 (Herbicidal ratio of 70% or more and less than 90%)
[9]; application to foliage
  herbicidal effect, I (Avena fatua): 4 (Herbicidal ratio of 70% or more and less than 90%)
[10]; application to foliage
  herbicidal effect, O (Chenopodium album): 5 (Herbicidal ratio of 90% or more (almost completely withered))
[11]; application to foliage
  herbicidal effect, F (Digitaria ciliaris): 5 (Herbicidal ratio of 90% or more (almost completely withered))
[12]; application to foliage
  herbicidal effect, H (Echinochloa crus-galli var. crus-galli): 5 (Herbicidal ratio of 90% or more (almost completely withered))
[13]; application to foliage
  herbicidal effect, Q (Galium spurium): 3 (Herbicidal ratio of 40% or more and less than 70%)
[14]; application to foliage
  herbicidal effect, K (Lolium multiflorum Lam.): 3 (Herbicidal ratio of 40% or more and less than 70%)
[15]; application to foliage
  herbicidal effect, G (Setaria viridis): 4 (Herbicidal ratio of 70% or more and less than 90%)
[16]; application to foliage
  herbicidal effect, P (Stellaria media): 5 (Herbicidal ratio of 90% or more (almost completely withered))

Source: patent US9708314B2, “Heterocyclic amide compound” (NISSAN CHEMICAL INDUSTRIES, LTD., priority 2013, dated 2017)
